# Results reported in patent US9216186B2, “Combination of a pyrroloquinoline compound and an aminoglycodise antimicrobial agent” (HELPERBY THERAPEUTICS LIMITED, priority 2010, dated 2015).
# Several values for one entry are separate records, joined by “and”; a condition that tells them apart may be missing. Equal values may be shown once. Where a name gives a salt, the structure may show the parent alone. Read-outs that look alike come from different tables or passages of the source.
# Legend:
# Format in all cases: cell-based
# [1] = tested on: Staphylococcus aureus (Oxford); experiment: Minimum inhibitory concentration (MIC), broth dilution in Iso-Sensitest broth; conditions: S. aureus (Oxford), overnight incubation at 37° C.
# Description: Staphylococcus aureus (Oxford); Gram positive; Reference strain.
# Iso-Sensitest Broth (Oxoid) was used for evaluation of Minimum inhibitory concentrations (MICs), susceptibility tests for antimicrobials, and efficacy of antimicrobial combinations.
# The stock solution of each drug was diluted to required concentrations. 10 μl of drug from each dilution was taken and mixed with 290 μl of culture with 10^6 of bacterial cells on a 96-well plate to make the final required concentrations (μg/ml).
# The plates were read at 405 nm using a 96-well plate reader Elx 800 equipped with a 405-nm filter (Bio-Tek) before and after incubation. The MIC values of the drugs were determined by comparison of the optical density reading between prior and post drug treatment.
# [2] = tested on: Staphylococcus aureus (Oxford); experiment: Minimum bactericidal concentration (MBC), subculture on drug-free TSA plates; conditions: S. aureus (Oxford)
# [3] = tested on: stationary phase Pseudomonas aeruginosa (clinical isolate); experiment: Kill curve by CFU counts against stationary phase bacteria
# Description: (§1) Pseudomonas aeruginosa (clinical isolate).
# A single colony of Ps. aeruginosa was inoculated in 10 ml of Nutrient Broth No. 2 (NB) (Oxoid) which was incubated overnight at 37° C. with continuous shaking at 120 rpm. 200 μl of the overnight culture was added into a 500 ml screw-cap which contained 100 ml of NB. The 100 ml culture was incubated at 37° C. with continuous shaking for 5 to 6 days. The cultures were diluted with phosphate buffered saline to 10^7 CFU/ml.
# The activities of the combination and each of the individual drugs were measured by CFU counts at 0, 2, 4, 6 and 8 hours. CFU counts were performed as follows: from serial 10-fold dilutions of the experimental cultures, 100 μl samples were added to triplicate plates of nutrient agar plates (Oxoid). Colony forming units (CFU) were counted after incubation of the plates at 37° C. for 24 hours.
# [4] = tested on: log phase Pseudomonas aeruginosa (clinical isolate); experiment: Chequerboard analysis of log phase bacteria, optical density at 405 nm / MIC; conditions: for MIC: single agent, range up to 64 μg/ml HT61, 16 μg/ml tobramycin
# Description: as §1
# P. aeruginosa was grown in 10 ml of NB overnight at 37° C. with continuous shaking at 120 rpm. The overnight cultures were diluted 1000× with iso-sensitest broth to obtain a cell suspension containing the bacteria at 10^6 CFU/ml. The cultures were incubated at 37° C. with shaking for 1-2 hours served as log-phase cultures. Viability of the bacteria was estimated by colony forming unit (CFU) counts.
# The two drugs were serially diluted twofold to 0 and combined in a pattern of an array.
# The optical density of the bacterial cells was read at 405 nm using a plate reader (Bio TEK). The MIC concentration was determined as the lowest concentration of drug which inhibits the bacterial growth. The MIC values of the drugs were determined by comparison of the optical density reading between prior and post drug treatment.
# [5] = tested on: clinically latent microorganisms; experiment: Screening of compounds for ability to kill clinically latent microorganisms (method of WO2000028074); conditions: observed by the Applicant using the method of WO2000028074
# Text: International Patent Application, Publication Number WO2000028074 describes a method of screening compounds to determine their ability to kill clinically latent microorganisms. […] This observation has necessitated the development of novel antimicrobials which may be used to kill clinically latent microorganisms.
# By way of example, WO2000028074 describes a suitable method of screening compounds to determine their ability to kill clinically latent microorganisms. A typical method may include the following steps: • (1) growing a bacterial culture to stationary phase; • (2) treating the stationary phase culture with one or more antimicrobial agents at a concentration and or time sufficient to kill growing bacteria, thereby selecting a phenotypically resistant sub-population; • (3) incubating a sample of the phenotypically resistant subpopulation with one or more test compounds or agents; and • (4) assessing any antimicrobial effects against the phenotypically resistant subpopulation.
# [6] = Staphylococcus aureus, read-out: MIC
molecule,measurement,setting,value
"Cc1nc2ccc(Oc3ccccc3)cc2c2c1CCN2CCc1ccccc1 [4-methyl-8-phenoxy-1-(2-phenylethyl)-2,3-dihydro-1H-pyrrolo[3,2-c]quinoline]",MIC,[1]; [6],8 µg/mL
same,MBC,"[2]; Staphylococcus aureus, read-out: MBC",16 µg/mL
NC[C@H]1O[C@H](O[C@H]2[C@H](O)[C@@H](O[C@H]3O[C@H](CO)[C@@H](O)[C@H](N)[C@H]3O)[C@H](N)C[C@@H]2N)[C@H](N)C[C@@H]1O [Tobramycin],activity alone against stationary phase P. aeruginosa,[3]; alone at 2 and 1 μg/ml,very low or no activities
same,MIC,"[4]; Pseudomonas aeruginosa, log phase P. aeruginosa, read-out: MIC",1 µg/mL
same,optical density at 405 nm,[4]; tobramycin 0.01563 μg/ml alone (HT61 0),3.25 and 3.14
same,optical density at 405 nm,[4]; tobramycin 0.03125 μg/ml alone (HT61 0),3.24 and 3.18
same,optical density at 405 nm,[4]; tobramycin 0.0625 μg/ml alone (HT61 0),3.16 and 3.09
same,optical density at 405 nm,[4]; tobramycin 0.125 μg/ml alone (HT61 0),3.15 and 3.08
same,optical density at 405 nm,[4]; tobramycin 0.25 μg/ml alone (HT61 0),3.04 and 2.97
same,optical density at 405 nm,[4]; tobramycin 0.5 μg/ml alone (HT61 0),2.19 and 2.18
same,optical density at 405 nm,[4]; tobramycin 1 μg/ml alone (HT61 0),0.46
same,optical density at 405 nm,[4]; tobramycin 2 μg/ml alone (HT61 0),0.44 and 0.45
same,optical density at 405 nm,[4]; tobramycin 4 μg/ml alone (HT61 0),0.47 and 0.50
same,optical density at 405 nm,[4]; tobramycin 8 μg/ml alone (HT61 0),0.44
CC(=O)NC[C@H]1CN(c2ccc(N3CCOCC3)c(F)c2)C(=O)O1 [linezolid],activity against clinically latent microorganisms,[5],little or no activity
NC[C@H]1O[C@H](O[C@H]2[C@H](O)[C@@H](O[C@H]3O[C@H](CO)[C@@H](O)[C@H](N)[C@H]3O)[C@H](N)C[C@@H]2N)[C@H](O)[C@@H](O)[C@@H]1O [Kanamycin],MIC,[1]; [6],8 µg/mL
CC[C@H]1OC(=O)[C@H](C)[C@@H](O[C@H]2C[C@@](C)(OC)[C@@H](O)[C@H](C)O2)[C@H](C)[C@@H](O[C@@H]2O[C@H](C)C[C@H](N(C)C)[C@H]2O)[C@](C)(O)C[C@@H](C)CN(C)[C@H](C)[C@@H](O)[C@]1(C)O [azithromycin],activity against clinically latent microorganisms,[5],little or no activity
co-amoxiclav,activity against clinically latent microorganisms,[5],little or no activity
Gentamicin,MIC,[1],1 µg/mL
same,MBC,[2],8 µg/mL
C/C(=C\C(=O)OCCCCCCCCC(=O)O)C[C@@H]1OC[C@H](C[C@@H]2O[C@H]2[C@@H](C)[C@H](C)O)[C@@H](O)[C@H]1O [mupirocin],activity against clinically latent microorganisms,[5],little or no activity
"Cc1nc2ccc(Oc3ccccc3)cc2c2c1CCN2CCc1ccccc1 [HT61, 4-methyl-8-phenoxy-1-(2-phenylethyl)-2,3-dihydro-1H-pyrrolo[3,2-c]quinoline mesylate]",activity alone against stationary phase P. aeruginosa,"[3]; alone at 32, 16 and 8 μg/ml",slight or no activities
same,optical density at 405 nm,"[4]; HT61 1 μg/ml alone (tobramycin 0), mesylate",3.16 and 3.08
same,optical density at 405 nm,"[4]; HT61 2 μg/ml alone (tobramycin 0), mesylate",3.12 and 3.11
same,optical density at 405 nm,"[4]; HT61 4 μg/ml alone (tobramycin 0), mesylate",3.11 and 3.10
same,optical density at 405 nm,"[4]; HT61 8 μg/ml alone (tobramycin 0), mesylate",3.15 and 3.10
same,optical density at 405 nm,"[4]; HT61 16 μg/ml alone (tobramycin 0), mesylate",3.11 and 3.07
same,optical density at 405 nm,"[4]; HT61 32 μg/ml alone (tobramycin 0), mesylate",3.09 and 3.04
same,optical density at 405 nm,"[4]; HT61 64 μg/ml alone (tobramycin 0), mesylate",3.01 and 3.09
same,MIC,[4]; log phase P. aeruginosa,no MIC
same,MIC of HT61 in combination with tobramycin,"[4]; with tobramycin at 0.5 μg/ml, log phase P. aeruginosa",16 µg/mL
